Measurements as given in ChEMBL document CHEMBL4000224, “Cadiolides J-M, antibacterial polyphenyl butenolides from the Korean tunicate Pseudodistoma antinboja” (2017).
Converted amounts (≈) assume the structure as drawn. The source made the active and inactive calls. The calls are words filed in the database; no cut-off is given here.

How the values were obtained:
Type in all cases: functional
Staphylococcus aureus [1] = test: Anti-bacterial activity against methicillin-susceptible Staphylococcus aureus CCARM 0027 by 2-fold microtiter broth dilution method
Staphylococcus aureus [2] = test: Anti-bacterial activity against methicillin-susceptible Staphylococcus aureus CCARM 0204 by 2-fold microtiter broth dilution method
Staphylococcus aureus [3] = test: Anti-bacterial activity against methicillin-susceptible Staphylococcus aureus CCARM 0205 by 2-fold microtiter broth dilution method
Staphylococcus aureus [4] = test: Anti-bacterial activity against methicillin-susceptible Staphylococcus aureus CCARM 3640 by 2-fold microtiter broth dilution method
Staphylococcus aureus [5] = test: Anti-bacterial activity against methicillin-resistant Staphylococcus aureus CCARM 3089 by 2-fold microtiter broth dilution method
Staphylococcus aureus [6] = test: Anti-bacterial activity against methicillin-resistant Staphylococcus aureus CCARM 3090 by 2-fold microtiter broth dilution method
Staphylococcus aureus [7] = test: Anti-bacterial activity against methicillin-resistant Staphylococcus aureus CCARM 3634 by 2-fold microtiter broth dilution method
Staphylococcus aureus [8] = test: Anti-bacterial activity against methicillin-resistant Staphylococcus aureus CCARM 3635 by 2-fold microtiter broth dilution method
Escherichia coli = test: Anti-bacterial activity against Escherichia coli ATCC 11775 by 2-fold microtiter broth dilution method; conditions: DSM 30083 = JCM 1649 = ATCC 11775
Salmonella typhimurium = test: Anti-bacterial activity against Salmonella typhimurium ATCC 14028 by 2-fold microtiter broth dilution method; conditions: Salmonella enterica subsp. enterica serovar Typhimurium
Klebsiella pneumoniae = test: Anti-bacterial activity against Klebsiella pneumoniae ATCC 4352 by 2-fold microtiter broth dilution method

C[C@]12C[C@@]34C=CC(=O)[C@@](C)(CCC(=O)Nc5c(O)ccc(C(=O)O)c5O)[C@@H]3[C@H](C[C@@H]1C4)O2
MIC (Staphylococcus aureus [1]): 4 µg/mL (≈ 9.06 µM)
MIC (Staphylococcus aureus [2]): 4 µg/mL (≈ 9.06 µM)
MIC (Staphylococcus aureus [3]): 4 µg/mL (≈ 9.06 µM)
MIC (Staphylococcus aureus [4]): 8 µg/mL (≈ 18.1 µM)
MIC (Staphylococcus aureus [5]): 8 µg/mL (≈ 18.1 µM)
MIC (Staphylococcus aureus [6]): 8 µg/mL (≈ 18.1 µM)
MIC (Staphylococcus aureus [7]): 8 µg/mL (≈ 18.1 µM)
MIC (Staphylococcus aureus [8]): 8 µg/mL (≈ 18.1 µM)

O=C1O/C(=C\c2cc(Br)c(O)c(Br)c2)C(c2cc(Br)c(O)c(Br)c2)=C1[C@@H](O)c1cc(Br)c(O)c(Br)c1
MIC (Staphylococcus aureus [1]): 2 µg/mL (≈ 2.28 µM)
MIC (Staphylococcus aureus [2]): 1 µg/mL (≈ 1.14 µM)
MIC (Staphylococcus aureus [3]): 1 µg/mL (≈ 1.14 µM)
MIC (Staphylococcus aureus [4]): 1 µg/mL (≈ 1.14 µM)
MIC (Staphylococcus aureus [5]): 1 µg/mL (≈ 1.14 µM)
MIC (Staphylococcus aureus [6]): 1 µg/mL (≈ 1.14 µM)
MIC (Staphylococcus aureus [7]): 1 µg/mL (≈ 1.14 µM)
MIC (Staphylococcus aureus [8]): 1 µg/mL (≈ 1.14 µM)
Activity (Escherichia coli): inactive
Activity (Salmonella typhimurium): inactive
Activity (Klebsiella pneumoniae): inactive

COc1ccc(C=C2OC(=O)C([C@@H](O)c3cc(Br)c(OC)c(Br)c3)=C2c2cc(Br)c(O)c(Br)c2)cc1
MIC (Staphylococcus aureus [1]): 4 µg/mL (≈ 5.36 µM)
MIC (Staphylococcus aureus [2]): 4 µg/mL (≈ 5.36 µM)
MIC (Staphylococcus aureus [3]): 4 µg/mL (≈ 5.36 µM)
MIC (Staphylococcus aureus [4]): 8 µg/mL (≈ 10.7 µM)
MIC (Staphylococcus aureus [5]): 4 µg/mL (≈ 5.36 µM)
MIC (Staphylococcus aureus [6]): 8 µg/mL (≈ 10.7 µM)
MIC (Staphylococcus aureus [7]): 4 µg/mL (≈ 5.36 µM)
MIC (Staphylococcus aureus [8]): 4 µg/mL (≈ 5.36 µM)
Activity (Escherichia coli): inactive
Activity (Salmonella typhimurium): inactive
Activity (Klebsiella pneumoniae): inactive

CCCCCCCCCC(=O)N[C@@H](Cc1c[nH]c2ccccc12)C(=O)N[C@@H](CC(N)=O)C(=O)N[C@@H](CC(=O)O)C(=O)N[C@@H]1C(=O)NCC(=O)N[C@@H](CCCN)C(=O)N[C@@H](CC(=O)O)C(=O)N[C@H](C)C(=O)N[C@@H](CC(=O)O)C(=O)NCC(=O)N[C@H](CO)C(=O)N[C@@H]([C@H](C)CC(=O)O)C(=O)N[C@@H](CC(=O)c2ccccc2N)C(=O)O[C@@H]1C [DAPTOMYCIN]
MIC (Staphylococcus aureus [1]): 16 µg/mL (≈ 9.87 µM)
MIC (Staphylococcus aureus [2]): 4 µg/mL (≈ 2.47 µM)
MIC (Staphylococcus aureus [3]): 2 µg/mL (≈ 1.23 µM)
MIC (Staphylococcus aureus [4]): 16 µg/mL (≈ 9.87 µM)
MIC (Staphylococcus aureus [5]): > 32 µg/mL
MIC (Staphylococcus aureus [6]): > 32 µg/mL
MIC (Staphylococcus aureus [7]): > 32 µg/mL
MIC (Staphylococcus aureus [8]): > 32 µg/mL

COc1ccc(C=C2OC(=O)C([C@@H](O)c3cc(Br)c(OC)c(Br)c3)=C2c2cc(Br)c(O)c(Br)c2)cc1Br
MIC (Staphylococcus aureus [1]): 4 µg/mL (≈ 4.85 µM)
MIC (Staphylococcus aureus [2]): 4 µg/mL (≈ 4.85 µM)
MIC (Staphylococcus aureus [3]): 2 µg/mL (≈ 2.42 µM)
MIC (Staphylococcus aureus [4]): 4 µg/mL (≈ 4.85 µM)
MIC (Staphylococcus aureus [5]): 8 µg/mL (≈ 9.7 µM)
MIC (Staphylococcus aureus [6]): 4 µg/mL (≈ 4.85 µM)
MIC (Staphylococcus aureus [7]): 4 µg/mL (≈ 4.85 µM)
MIC (Staphylococcus aureus [8]): 4 µg/mL (≈ 4.85 µM)
Activity (Escherichia coli): inactive
Activity (Salmonella typhimurium): inactive
Activity (Klebsiella pneumoniae): inactive

COc1c(Br)cc([C@H](O)C2=C(c3ccc(O)c(Br)c3)/C(=C/c3cc(Br)c(O)c(Br)c3)OC2=O)cc1Br
MIC (Staphylococcus aureus [1]): 4 µg/mL (≈ 4.93 µM)
MIC (Staphylococcus aureus [2]): 2 µg/mL (≈ 2.47 µM)
MIC (Staphylococcus aureus [3]): 2 µg/mL (≈ 2.47 µM)
MIC (Staphylococcus aureus [4]): 4 µg/mL (≈ 4.93 µM)
MIC (Staphylococcus aureus [5]): 4 µg/mL (≈ 4.93 µM)
MIC (Staphylococcus aureus [6]): 4 µg/mL (≈ 4.93 µM)
MIC (Staphylococcus aureus [7]): 4 µg/mL (≈ 4.93 µM)
MIC (Staphylococcus aureus [8]): 4 µg/mL (≈ 4.93 µM)
Activity (Escherichia coli): inactive
Activity (Salmonella typhimurium): inactive
Activity (Klebsiella pneumoniae): inactive

COc1c(Br)cc([C@H](O)C2=C(c3cc(Br)c(O)c(Br)c3)/C(=C/c3ccc(O)c(Br)c3)OC2=O)cc1Br
MIC (Staphylococcus aureus [1]): 1 µg/mL (≈ 1.23 µM)
MIC (Staphylococcus aureus [2]): 1 µg/mL (≈ 1.23 µM)
MIC (Staphylococcus aureus [3]): 0.5 µg/mL (≈ 0.617 µM)
MIC (Staphylococcus aureus [4]): 1 µg/mL (≈ 1.23 µM)
MIC (Staphylococcus aureus [5]): 2 µg/mL (≈ 2.47 µM)
MIC (Staphylococcus aureus [6]): 2 µg/mL (≈ 2.47 µM)
MIC (Staphylococcus aureus [7]): 2 µg/mL (≈ 2.47 µM)
MIC (Staphylococcus aureus [8]): 1 µg/mL (≈ 1.23 µM)
Activity (Escherichia coli): inactive
Activity (Salmonella typhimurium): inactive
Activity (Klebsiella pneumoniae): inactive

CN[C@H](CC(C)C)C(=O)N[C@H]1C(=O)N[C@@H](CC(N)=O)C(=O)N[C@H]2C(=O)N[C@H]3C(=O)N[C@H](C(=O)N[C@H](C(=O)O)c4cc(O)cc(O)c4-c4cc3ccc4O)[C@H](O)c3ccc(c(Cl)c3)Oc3cc2cc(c3O[C@@H]2O[C@H](CO)[C@@H](O)[C@H](O)[C@H]2O[C@H]2C[C@](C)(N)[C@H](O)[C@H](C)O2)Oc2ccc(cc2Cl)[C@H]1O [VANCOMYCIN]
MIC (Staphylococcus aureus [2]): 0.25 µg/mL (≈ 0.173 µM)
MIC (Staphylococcus aureus [3]): < 0.13 µg/mL
MIC (Staphylococcus aureus [4]): 0.25 µg/mL (≈ 0.173 µM)
